What was measured:
[1] = tested on: Cetuximab; assay: Microtiter plate chromatography of resins: binding and elution of Cetuximab; details: fraction of injected protein bound; 0.5 mg/ml IgG in PBS pH 7.3
In short: (§1)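 About 30 μl resin columns loaded with 3.3 cv IgG at 0.5 mg ml^−1 in PBS (or undiluted HCP), washed with 5 cv PBS, eluted with 5 cv glycine pH 2.5. Fractions quantified by Bradford; bound fraction = (mi−mft)/mi, yield = me/mi.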

[2] = target: T1, Bevacizumab (Homo sapiens, UniProt P01857); assay: Langmuir isotherms by batch adsorption; assay type: binding; details: mg Bevacizumab per ml of resin; Langmuir isotherm
T1 construct: 0.5 mg/ml IgG in PBS pH 7.3; ligand immobilized on SEPHAR; Bevacizumab Yield; other: mass eluted (glycine pH 2.5) / mass injected; kd (dissociation constant, Langmuir isotherm); other: Bevacizumab 0.05-5 mg/ml in PBS pH 7.3, 25° C., at least 3 h; qm (maximum capacity); other: mg Bevacizumab per ml of resin; Langmuir isotherm; t0; fused on or other part: Humanized anti-VEGF-A VH domain joined N-terminally to the IGHG1 constant region (engineered, no UniProt entry)

[3] = target: T1, Bevacizumab; assay: Dynamic binding capacity by column chromatography
Experimental: Dynamic binding capacities were determined by column chromatography with purified Bevacizumab. Resins were packed into analytical columns of 25 mm length and 3 mm inner diameter. Columns were fed with 1 mg/ml antibody in phosphate-buffered saline (150 mM NaCl, 20 mM phosphate buffer, pH 7.3) at a flow rate of 50 cm/h (3 min column residence time), while the concentration of antibody in effluents was monitored online via absorbance at 280 nm. Antibody was loaded until complete breakthrough of the feed. Dynamic binding capacities were determined at the 10% breakthrough. Equilibrium capacities were determined by integration of the area above the breakthrough curve. Bound antibody was stripped from columns by elution with glycine at pH 3.0.
It was calculated as the time t0.1 after which 10% breakthrough occurred, multiplied by the flow rate F and feed concentration cf. dynamiccapacity=t0.1·F·cf
Equilibrium capacity is defined as the maximum amount of antibody that binds to a column for a given feed stream concentration. It was calculated by evaluation of the following integral
[formula] containing the feed concentration cf, effluent concentration over time c(t) and flow rate F. The integral was evaluated numerically. Integration was limited to the time after which complete breakthrough had occurred. […]

[4] = Alkaline stability of ligands in 0.5 M sodium hydroxide; assay type: physicochemical; details: 25° C., 8 days, hydrolysis monitored by LC-MS, read-out: t0.5 (half-life) (converted)
Experimental: A subset of ligands from Example 1 was tested for its alkaline stability. Ligands were treated with 0.5 M sodium hydroxide at 25° C. for 8 days. Hydrolysis was monitored by LC-MS analysis.

[5] = tested on: Palivizumab; assay: Microtiter plate chromatography of resins: binding and elution of Palivizumab; details: fraction of injected protein bound; 0.5 mg/ml IgG in PBS pH 7.3
In short: as §1

[6] = target: T1, Bevacizumab; assay: Uptake kinetics by batch adsorption (time-scale of binding); details: time after which 80% of equilibrium saturation occurred; 0.75 mg/ml Bevacizumab in PBS, 25° C.
Experimental: Uptake kinetics was investigated similarly by batch adsorption in 96-well filter plates. Again, 10 μl of sorbent slurry (50% v/v) were mixed with 100 μl of protein solution. […] Reactions were agitated vigorously at 25° C. for up to 80 min. Supernatants were separated rapidly by spinning through filters after 2.5, 5, 10, 20, 40 and 80 minutes and sampled for analysis. Concentrations of the antibody were analyzed by Bradford assay.
For determination of t0.8, measured concentrations in the supernatant were interpolated by fitting of double-exponentials and values of t0.8 were read out from graphs (2).

[7] = tested on: host cell proteins (HCP); assay: Microtiter plate chromatography of resins: binding of host cell proteins; parameters: species or system CHO cell culture; details: fraction of injected undiluted host cell proteins bound
In short: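 Undiluted HCP-containing flowthrough from protein A chromatography of CHO serum-free culture was loaded onto ~30 µl packed resin columns in microtiter-plate format. Columns were washed with 5 cv PBS and eluted with glycine pH 2.5, and fractions were quantified by Bradford. Bound fraction = (injected − flowthrough mass)/injected mass.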

[8] = tested on: poly-IgG from human serum (h-poly-IgG); assay: Microtiter plate chromatography of resins: binding and elution of human poly-IgG; details: fraction of injected protein bound; 0.5 mg/ml IgG in PBS pH 7.3
In short: as §1

[9] = target: T1, Bevacizumab; assay: Microtiter plate chromatography of resins: binding and elution of Bevacizumab
In short: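 About 30 μl packed resin columns loaded with 3.3 cv IgG at 0.5 mg ml^−1 in PBS or undiluted HCP, washed with 5 cv PBS, eluted with 5 cv glycine pH 2.5. Protein in fractions by Bradford. Bound fraction = (injected − flowthrough)/injected; yield = eluted/injected; selectivity = Bevacizumab bound fraction / HCP bound fraction, truncated beyond 10.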

[10] = tested on: Tocilizumab; assay: Microtiter plate chromatography of resins: binding and elution of Tocilizumab; details: fraction of injected protein bound; 0.5 mg/ml IgG in PBS pH 7.3
In short: as §1

NCCCn1cnc2cc(C(=O)Nc3nnc(-c4ccco4)s3)ccc21 [Ligand L05, 1-(3-Amino-1-propyl)benzimidazole-5-carboxylic acid N-[5-(2-furyl)-1,3,4-thiadiazol-2-yl]amide]
Cetuximab Bound [1]: 100%
qm (maximum capacity) [2]: 47 mg/mL
Dynamic Capacity ([3]; 10% breakthrough, 1 mg/ml Bevacizumab, 50 cm/h (3 min residence time)): 25 mg/mL
Equilibrium Capacity ([3]; feed concentration 1 mg/ml Bevacizumab, integration above breakthrough curve): 39 mg/mL
half-life [4]: > 41.6 days
Palivizumab Bound [5]: 100%
t0.8 (time-scale of binding) [6]: 9.8 min
HCP Bound [7]: 17%
h-poly-IgG Bound [8]: 100%
Bevacizumab Bound ([9]; fraction of injected protein bound, 0.5 mg/ml IgG in PBS pH 7.3, ligand immobilized on SEPHAROSE 4 FF): 100%
Bevacizumab Yield ([9]; mass eluted (glycine pH 2.5) / mass injected): 101%
Tocilizumab Bound [10]: 100%

— patent US9745339B2 (GRAFFINITY PHARMACEUTICALS GMBH, priority 2012, dated 2017)
